This assay deals with Neuropilin-1 (Homo sapiens) (UniProt O14786). As to the kind of experiment: blockers of CendR peptide binding to NRP-1 – biochemical, FP and AlphaScreen panel, dose response (AID 651650). The settings on record: NRP-1 b1b2 / RPARPAR peptide binding, FP or AlphaScreen. In general terms: In Alpha technology, singlet oxygen from a donor bead excites a nearby acceptor bead.
Setting [1] is: AlphaScreen, run 1, individual panel run IC50.
Where [2] appears, read: FP, run 1, individual panel run IC50.
Where [3] appears, read: FP, run 2, individual panel run IC50.

Calls of active or inactive are those of the source.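 The calls were made as follows: active = mean IC50 below 20 µM in each of the two panels, so potent in both; inactive = the rest.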

Neuropilin-1 (Homo sapiens), sequence (O14786 whole entry, looked up): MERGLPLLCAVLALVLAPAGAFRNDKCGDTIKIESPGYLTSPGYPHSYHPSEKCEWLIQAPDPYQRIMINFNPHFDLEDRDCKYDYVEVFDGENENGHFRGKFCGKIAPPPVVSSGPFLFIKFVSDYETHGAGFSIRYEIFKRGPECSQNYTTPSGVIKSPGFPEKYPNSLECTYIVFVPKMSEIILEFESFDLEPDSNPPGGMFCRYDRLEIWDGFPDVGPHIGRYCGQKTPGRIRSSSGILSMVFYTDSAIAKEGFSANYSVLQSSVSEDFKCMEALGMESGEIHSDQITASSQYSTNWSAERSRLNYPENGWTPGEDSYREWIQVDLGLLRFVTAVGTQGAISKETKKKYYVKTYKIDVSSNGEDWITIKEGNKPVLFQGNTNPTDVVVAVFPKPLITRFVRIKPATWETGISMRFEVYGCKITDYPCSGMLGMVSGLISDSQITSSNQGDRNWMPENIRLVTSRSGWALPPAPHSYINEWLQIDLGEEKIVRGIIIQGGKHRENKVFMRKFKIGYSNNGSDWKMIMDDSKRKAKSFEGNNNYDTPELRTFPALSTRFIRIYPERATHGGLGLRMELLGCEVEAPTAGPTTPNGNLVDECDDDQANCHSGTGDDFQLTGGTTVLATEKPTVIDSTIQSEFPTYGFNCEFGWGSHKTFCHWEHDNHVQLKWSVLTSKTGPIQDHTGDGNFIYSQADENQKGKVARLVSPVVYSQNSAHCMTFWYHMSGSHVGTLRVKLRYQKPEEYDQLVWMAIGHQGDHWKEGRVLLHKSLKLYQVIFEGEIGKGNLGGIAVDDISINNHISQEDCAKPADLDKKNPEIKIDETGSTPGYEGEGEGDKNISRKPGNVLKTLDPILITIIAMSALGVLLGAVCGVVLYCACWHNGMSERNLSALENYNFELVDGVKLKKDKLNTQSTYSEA

A word on the IC50: it is the concentration at which inhibition is half-maximal. For `CC(NCCOCCOc1ccccc1)c1ccccc1` (stereo not given), the IC50 (AlphaScreen, mean of runs) was > 100 µM (inactive); the IC50 under setting [1] was over 100 µM; the IC50 (FP, mean of runs) was > 95 µM (inactive); the half-inhibitory concentration (IC50) under setting [2] is over 95 µM; the IC50 under setting [3] is over 95 µM.
As to `CC(C)c1ccc(S(=O)(=O)N2CCN(C(=O)CN3C(=O)c4ccccc4C3=O)CC2)cc1`, the IC50 (AlphaScreen, mean of runs) is > 100 µM (inactive); the IC50 under setting [1] is over 100 µM; the IC50 (FP, mean of runs) is > 95 µM (inactive); the IC50 under setting [2] is over 95 µM; the IC50 under setting [3] was over 95 µM.
Regarding `O=C1CSC(c2cn(-c3ccccc3)nc2-c2cccs2)N1CC1CCCO1` (stereo not given), the IC50 entry (AlphaScreen, mean of runs) was “inactive”. The IC50 by setting is: under setting [1], 44.4 µM; (FP, mean of runs) > 95 µM (inactive); under setting [2], over 95 µM; under setting [3], over 95 µM.
Take `NC(=O)C1CCN(c2nc(-c3ccc4occc(=O)c4c3)cs2)CC1`: the IC50 (AlphaScreen, mean of runs) is > 100 µM (inactive); the IC50 under setting [1] was over 100 µM; the IC50 (FP, mean of runs) is > 95 µM (inactive); the IC50 under setting [2] is over 95 µM; the IC50 under setting [3] was over 95 µM.
Regarding `CCC1=C(OC(=O)N(CC)CC)N2C(=O)OC(=NCC(=O)OC)[C@]2(C)[C@H]2C1=CC[C@H]1C(=O)N(CC)C(=O)[C@H]12`, the IC50 runs as follows: (AlphaScreen, mean of runs) > 100 µM (inactive); under setting [1], over 100 µM; (FP, mean of runs) > 95 µM (inactive); under setting [2], over 95 µM; under setting [3], over 95 µM.
Consider `COc1ccc(C(=O)N[C@H](C(=O)Nc2nc3c(s2)CCCC3)C(C)C)cc1`, for which the IC50 (AlphaScreen, mean of runs) was > 100 µM (inactive); the IC50 under setting [1] is over 100 µM; the IC50 (FP, mean of runs) was > 95 µM (inactive); the IC50 under setting [2] was over 95 µM; the IC50 under setting [3] was over 95 µM.
As to `Cc1nc(SCc2ccc(C(=O)O)cc2)nc2c1CCCC2`, the IC50 reads like this: (AlphaScreen, mean of runs) > 100 µM (inactive); under setting [1], over 100 µM; (FP, mean of runs) > 95 µM (inactive); under setting [2], over 95 µM; under setting [3], over 95 µM.
`O=C(Cc1ccc(F)cc1)N1CCN=C1SCc1ccc([N+](=O)[O-])cc1`: the IC50 is > 100 µM (inactive) (AlphaScreen, mean of runs); over 100 µM under setting [1]; > 95 µM (inactive) (FP, mean of runs); over 95 µM under setting [2]; over 95 µM under setting [3].
In the case of `O=C(/C=C/c1ccccc1)c1ccccn1`, the IC50 (AlphaScreen, mean of runs) was > 100 µM (inactive); the IC50 under setting [1] was over 100 µM; the IC50 (FP, mean of runs) is > 95 µM (inactive); the IC50 under setting [2] was over 95 µM; the IC50 under setting [3] was over 95 µM.
`Cc1ccccc1Nc1nc(N)nc(COC(=O)CC2CC3CCC2C3)n1` (stereo not given): the IC50 runs as follows: (AlphaScreen, mean of runs) > 100 µM (inactive); under setting [1], over 100 µM; (FP, mean of runs) > 95 µM (inactive); under setting [2], over 95 µM; under setting [3], over 95 µM.
`CC(/C=C/c1ccccc1)=N\NC(=O)CCc1ccccc1`: the IC50 is > 100 µM (inactive) (AlphaScreen, mean of runs); over 100 µM under setting [1]; > 95 µM (inactive) (FP, mean of runs); over 95 µM under setting [2]; over 95 µM under setting [3].
For `CCC1=C(OC(=O)N(CC)CC)N2C(=O)OC(=NCCOC)[C@]2(Cc2ccccc2)[C@H]2C1=CC[C@H]1C(=O)N(CC(=O)OC)C(=O)[C@H]12`, the IC50 was > 100 µM (inactive) (AlphaScreen, mean of runs); over 100 µM under setting [1]; > 95 µM (inactive) (FP, mean of runs); over 95 µM under setting [2]; over 95 µM under setting [3].
Consider `COc1ccc(Cn2c(C3CC3)nc3ccc(NC(=O)c4cccnc4)cc3c2=O)cc1`, for which the IC50 entry (AlphaScreen, mean of runs) was “inactive”. In addition, the half-maximal inhibitory concentration (IC50) by setting is: under setting [1], 31.7 µM; (FP, mean of runs) > 95 µM (inactive); under setting [2], over 95 µM; under setting [3], over 95 µM.
As to `CN(c1ccccc1)S(=O)(=O)c1cccc(NC(=O)CSc2nncn2C)c1`, the IC50 was > 100 µM (inactive) (AlphaScreen, mean of runs); over 100 µM under setting [1]; > 95 µM (inactive) (FP, mean of runs); over 95 µM under setting [2]; over 95 µM under setting [3].
As for `Cc1cc(C)n2c(Nc3ccc4c(c3)OCCO4)c(-c3ccccn3)nc2n1`, the IC50 by setting is: (AlphaScreen, mean of runs) > 100 µM (inactive); under setting [1], over 100 µM; (FP, mean of runs) > 95 µM (inactive); under setting [2], over 95 µM; under setting [3], over 95 µM.
As to `O=C(Nc1cccc(S(=O)(=O)N2CCCCC2)c1)c1ccc([N+](=O)[O-])o1`, the IC50 by setting is: (AlphaScreen, mean of runs) > 100 µM (inactive); under setting [1], over 100 µM; (FP, mean of runs) > 95 µM (inactive); under setting [2], over 95 µM; under setting [3], over 95 µM.
As to `CC(C)(C)OC(=O)NCc1ccc(CNC(=O)c2nc[nH]c2C(=O)N2CCN(C(=O)OC(C)(C)C)CC2)cc1`, the IC50 reads like this: (AlphaScreen, mean of runs) > 100 µM (inactive); under setting [1], over 100 µM; (FP, mean of runs) > 95 µM (inactive); under setting [2], over 95 µM; under setting [3], over 95 µM.
As to `CCOC(=O)N1CCN(C(=O)c2cc(COc3ccc(OC)cc3Cl)on2)CC1`, the IC50 (AlphaScreen, mean of runs) was > 100 µM (inactive); the IC50 under setting [1] was over 100 µM; the IC50 (FP, mean of runs) was > 95 µM (inactive); the IC50 under setting [2] was over 95 µM; the IC50 under setting [3] was over 95 µM.
In the case of `CCOc1ccc(/C=C2/Sc3ccc(C(=O)NCC4CCCO4)cc3N(C)C2=O)cc1OC` (stereo not given), the IC50 runs as follows: (AlphaScreen, mean of runs) > 100 µM (inactive); under setting [1], over 100 µM; (FP, mean of runs) > 95 µM (inactive); under setting [2], over 95 µM; under setting [3], over 95 µM.
Regarding `Cc1cc2c(=O)[nH]cnc2s1`, the IC50 was > 100 µM (inactive) (AlphaScreen, mean of runs); over 100 µM under setting [1]; > 95 µM (inactive) (FP, mean of runs); over 95 µM under setting [2]; over 95 µM under setting [3].
Consider `C=C[C@]12CC[C@H](OC(C)=O)CC1=CCC1C2CC[C@@]2(C)C1CCC21OCCO1` (stereo not given in full), for which the IC50 is > 100 µM (inactive) (AlphaScreen, mean of runs); over 100 µM under setting [1]; > 95 µM (inactive) (FP, mean of runs); over 95 µM under setting [2]; over 95 µM under setting [3].
Turning to `O=C1CCC[C@@H]2Cc3nc4cc5c(cc4cc3[C@@H]3CCN1[C@H]23)OCO5`, the IC50 (AlphaScreen, mean of runs) was > 100 µM (inactive); the IC50 under setting [1] was over 100 µM; the IC50 (FP, mean of runs) was > 95 µM (inactive); the IC50 under setting [2] was over 95 µM; the IC50 under setting [3] was over 95 µM.
Take `CCCc1c(C)nc(N2CCN(c3ccccc3OC)CC2)[nH]c1=O`: the IC50 runs as follows: (AlphaScreen, mean of runs) > 100 µM (inactive); under setting [1], over 100 µM; (FP, mean of runs) > 95 µM (inactive); under setting [2], over 95 µM; under setting [3], over 95 µM.
On to `CCC1CCCCN1C(=S)Nc1ccc(OC(F)F)cc1` (stereo not given), for which, under “AlphaScreen, mean of runs”, the IC50 result was “inactive”. In addition, the IC50 by setting is: under setting [1], 32.8 µM; (FP, mean of runs) > 95 µM (inactive); under setting [2], over 95 µM; under setting [3], over 95 µM.
For `CCOC(=O)c1c(=O)n(O)c2ccc(OC)cc2[n+]1[O-]`, the IC50 is, setting by setting: (AlphaScreen, mean of runs) > 100 µM (inactive); under setting [1], over 100 µM; (FP, mean of runs) > 95 µM (inactive); under setting [2], over 95 µM; under setting [3], over 95 µM.
Consider `CC(C)Cc1ccc(C(C)C(=O)Nc2ccc(O)cc2)cc1` (stereo not given), for which the IC50 is > 100 µM (inactive) (AlphaScreen, mean of runs); over 100 µM under setting [1]; > 95 µM (inactive) (FP, mean of runs); over 95 µM under setting [2]; over 95 µM under setting [3].
Take `CCN(Cc1ccncc1)C(=O)c1cc(COc2ccc(F)cc2F)on1`: the IC50 (AlphaScreen, mean of runs) is > 100 µM (inactive); the IC50 under setting [1] is over 100 µM; the IC50 (FP, mean of runs) was > 95 µM (inactive); the IC50 under setting [2] is over 95 µM; the IC50 under setting [3] was over 95 µM.
On to `COc1ccc(-c2csc(Nc3cccnc3)n2)cc1`, for which the IC50 was > 100 µM (inactive) (AlphaScreen, mean of runs); over 100 µM under setting [1]; > 95 µM (inactive) (FP, mean of runs); over 95 µM under setting [2]; over 95 µM under setting [3].
Turning to `C=C(C)COc1ccc(-c2[nH]ncc2-c2ccccc2)c(O)c1`, the IC50 reads like this: (AlphaScreen, mean of runs) > 100 µM (inactive); under setting [1], over 100 µM; (FP, mean of runs) > 95 µM (inactive); under setting [2], over 95 µM; under setting [3], over 95 µM.
Turning to `O=C(CN1C2=NCCN2c2ccccc21)c1ccco1`, the IC50 runs as follows: (AlphaScreen, mean of runs) > 100 µM (inactive); under setting [1], over 100 µM; (FP, mean of runs) > 95 µM (inactive); under setting [2], over 95 µM; under setting [3], over 95 µM.
Take `CC(CN1CCCCC1)OC(=O)c1ccc(Cl)cc1Cl` (stereo not given): the IC50 was > 100 µM (inactive) (AlphaScreen, mean of runs); over 100 µM under setting [1]; > 95 µM (inactive) (FP, mean of runs); over 95 µM under setting [2]; over 95 µM under setting [3].
In the case of `C[C@@H](C(=O)Nc1cccnc1)n1c(=O)[nH]c2ccccc2c1=O`, the IC50 by setting is: (AlphaScreen, mean of runs) > 100 µM (inactive); under setting [1], over 100 µM; (FP, mean of runs) > 95 µM (inactive); under setting [2], over 95 µM; under setting [3], over 95 µM.
Consider `CCN(CC)C(=O)CSc1nnc(-c2c[nH]c3ccccc23)o1`, for which the IC50 is > 100 µM (inactive) (AlphaScreen, mean of runs); over 100 µM under setting [1]; > 95 µM (inactive) (FP, mean of runs); over 95 µM under setting [2]; over 95 µM under setting [3].
Consider `CCN(CCCNC(=O)CNC(=O)c1nn(-c2ccc(OC)cc2OC)c(=O)c2ccccc12)c1cccc(C)c1`, for which the IC50 was > 100 µM (inactive) (AlphaScreen, mean of runs); over 100 µM under setting [1]; > 95 µM (inactive) (FP, mean of runs); over 95 µM under setting [2]; over 95 µM under setting [3].
